This note sets out measurements from patent publication US11473055B2, “Virus-free cell lines and methods for obtaining same” (Glycobac, LLC, priority 2015, dated 2022).

Test [1] has as its system Sf-rhabdovirus.
Another test concerns Tn-nodavirus. Nature of the test: Tn-nodavirus RT-PCR/nested PCR of single TN-368 cell subclones treated with ribavirin. It counts as cell-based, Trichoplusia ni. To be noted: single TN-368 cell subclone, 200 μg/mL, about a month (FIG. 14). How it is done: Example 15. Exemplary method for obtaining an established T. ni cell line that lacks virus. After discovering polyclonal TN-368 cell cultures treated with antiviral drug cocktails remained Tn-nodavirus-positive, we employed a disclosed method for obtaining a virus-free cell line. […] The first culture composition was cultured for about a month with ad hoc amplification to produce progressively larger cultures and, after achieving the 25 cm^2 flask level, samples were tested for Tn-nodavirus by RT-PCR, followed by nested PCR, as described in Example 16. […] The clone, designated Tn-NVN passage zero (PO), was adapted to serum-free ESF 921 medium and grown in suspension. The Tn-NVN cell line was subsequently maintained in this second culture composition and growth format.

In test [2] the test system is Sf-rhabdovirus. The test can be described thus: Sf-rhabdovirus RT-PCR/nested PCR of single Sf9 cell subclones isolated by limiting dilution and treated with antiviral drugs. Format: cell-based, Spodoptera frugiperda. The note with it: single Sf9 cell subclone, 10 μg/ml, about a month (FIG. 2B). How it is done: Example 3. Exemplary method for obtaining an established Sf cell line characterized by a lack of virus. […] This exemplary embodiment comprised isolating single Sf9 cells by limiting dilution, then treating the isolated cell subclones with antiviral drugs. […] The cells were cultured for about a month with ad hoc amplification to produce progressively larger cultures and, after achieving the 25 cm^2 flask level, samples were tested for Sf-rhabdovirus contamination by PCR, as described in Example 4. A clone lacking Sf-rhabdovirus contamination (FIG. 2B) was transferred to media lacking antiviral drugs, designated Sf-RVN passage zero (PO) and, at P2, transferred to a shake-flask culture in serum-free ESF 921 medium and subsequently maintained in this culture medium and format.
Example 4. Sf-rhabdovirus-specific Reverse Transcription-PCR (RT-PCR)/nested PCR. […] One μL of each primary PCR (RT-PCR) was then used as the template for secondary PCR's (RT-PCR/nested PCR) under the same conditions, except the primers were nested Sf-rhabdovirus-specific primers Mono-1i (SEQ ID NO: 7) and Mono-2i (SEQ ID NO: 8).

Consider `NC(=O)c1ncn([C@@H]2O[C@H](CO)[C@@H](O)[C@H]2O)n1` [ribavirin], for which the “Sf-rhabdovirus RNA by RT-PCR” value in the test on Sf-rhabdovirus [1] (polyclonal Sf9 cells, 100 μg/ml, about a month, still in presence of drug (FIG. 1A)) is “no RT-PCR-detectable Sf-rhabdovirus”. For the same molecule, in the test on Sf-rhabdovirus [1] (ribavirin-treated Sf9 cells transferred to culture medium lacking antiviral drugs (FIG. 1B)), the “Sf-rhabdovirus RNA by RT-PCR/nested PCR after transfer to drug-free medium” value is “reverted to the Sf-rhabdovirus-positive phenotype”. Besides, the “Tn-nodavirus RNA by RT-PCR followed by nested PCR” value in the test with Tn-nodavirus is “lacking Tn-nodavirus”.
For `O=c1cnn([C@@H]2O[C@H](CO)[C@@H](O)[C@H]2O)c(=O)[nH]1` [6-azauridine], the “Sf-rhabdovirus RNA by RT-PCR followed by nested PCR” value in the test on Sf-rhabdovirus [2] is given as “negative for Sf-rhabdovirus contamination”.
